Tested on: Acinetobacter baumannii strains
Experiment: Antibiotic susceptibility test (CLSI disk diffusion test method, read per CLSI 2016); further: key: ‘S’ means susceptible; ‘I’ means intermediate; ‘R’ means resistant
Format: cell-based

What does the source list for `C[C@H]1COc2c(N3CCN(C)CC3)c(F)cc3c(=O)c(C(=O)O)cn1c23` [Levofloxacin, levofloxacin]?
antibiotic susceptibility class (host strain YMC14/01/C29): R; antibiotic susceptibility class (host strain YMC14/01/IP122): I; antibiotic susceptibility class (host strain YMC14/01/L8): R; antibiotic susceptibility class (host strain YMC14/01/P31): R; antibiotic susceptibility class (host strain YMC14/01/P117): I; antibiotic susceptibility class (host strain YMC14/01/P224): R; antibiotic susceptibility class (host strain YMC14/01/P727): R; antibiotic susceptibility class (host strain YMC14/01/P728): R; antibiotic susceptibility class (host strain YMC14/01/R130): R; antibiotic susceptibility class (host strain YMC14/01/R160): R; antibiotic susceptibility class (host strain YMC14/01/R198): R; antibiotic susceptibility class (host strain YMC14/01/R257): R; antibiotic susceptibility class (host strain YMC14/01/R270): R; antibiotic susceptibility class (host strain YMC14/01/R324): R; antibiotic susceptibility class (host strain YMC14/01/R443): R; antibiotic susceptibility class (host strain YMC14/01/R451): R; antibiotic susceptibility class (host strain YMC14/01/R560): R; antibiotic susceptibility class (host strain YMC14/01/R617): R; antibiotic susceptibility class (host strain YMC14/01/R671): R; antibiotic susceptibility class (host strain YMC14/01/R732): R; antibiotic susceptibility class (host strain YMC14/01/R767): R; antibiotic susceptibility class (host strain YMC14/01/R904): R; antibiotic susceptibility class (host strain YMC14/01/R905): R; antibiotic susceptibility class (host strain YMC14/01/R921): R; antibiotic susceptibility class (host strain YMC14/01/R941): R; antibiotic susceptibility class (host strain YMC14/01/R958): R; antibiotic susceptibility class (host strain YMC14/01/R1006): R; antibiotic susceptibility class (host strain YMC14/01/R1199): R; antibiotic susceptibility class (host strain YMC14/01/R1659): R; antibiotic susceptibility class (host strain YMC14/01/R1722): R; antibiotic susceptibility class (host strain YMC14/01/R1752): R; antibiotic susceptibility class (host strain YMC14/01/R2429): R; antibiotic susceptibility class (host strain YMC14/01/R2572): R; antibiotic susceptibility class (host strain YMC14/01/R2855): R; antibiotic susceptibility class (host strain YMC14/01/R2945): R; antibiotic susceptibility class (host strain YMC14/01/R3007): R; antibiotic susceptibility class (host strain YMC14/01/R3129): R; antibiotic susceptibility class (host strain YMC14/01/R3317): R; antibiotic susceptibility class (host strain YMC14/01/R3474): I; antibiotic susceptibility class (host strain YMC14/01/R3574): R; antibiotic susceptibility class (host strain YMC14/01/U313): R; antibiotic susceptibility class (host strain YMC14/01/U318): R; antibiotic susceptibility class (host strain YMC14/02/L18): R; antibiotic susceptibility class (host strain YMC14/02/P47): R; antibiotic susceptibility class (host strain YMC14/02/R1860): R; antibiotic susceptibility class (host strain YMC14/02/R2417): R; antibiotic susceptibility class (host strain YMC14/02/R2599): R; antibiotic susceptibility class (host strain YMC14/02/R2668): R; antibiotic susceptibility class (host strain YMC14/02/R2758): R; antibiotic susceptibility class (host strain YMC14/02/R2781): R; antibiotic susceptibility class (host strain YMC14/02/R3106): R; antibiotic susceptibility class (host strain YMC14/02/R3419): R; antibiotic susceptibility class (host strain YMC14/02/U1607): R; antibiotic susceptibility class (host strain YMC14/03/L9): R; antibiotic susceptibility class (host strain YMC14/03/P471): R; antibiotic susceptibility class (host strain YMC14/03/R122): R; antibiotic susceptibility class (host strain YMC14/03/R217): R; antibiotic susceptibility class (host strain YMC14/03/R380): R; antibiotic susceptibility class (host strain YMC14/03/R618): R; antibiotic susceptibility class (host strain YMC14/03/R2144): R; antibiotic susceptibility class (host strain YMC14/03/U4616): R; antibiotic susceptibility class (host strain YMC14/04/R1078): R; antibiotic susceptibility class (host strain YMC14/04/R1080): R; antibiotic susceptibility S/I/R (host strain YMC14/06/R2359): R; susceptibility category (S/I/R) (host strain YMC14/06/R2359): R; antibiotic susceptibility S/I/R (host strain YMC14/08/R1169): R; susceptibility category (S/I/R) (host strain YMC14/08/R1169): R; antibiotic susceptibility S/I/R (host strain YMC14/08/T90): R; susceptibility category (S/I/R) (host strain YMC14/08/T90): R; antibiotic susceptibility S/I/R (host strain YMC15/02/R436): R; susceptibility category (S/I/R) (host strain YMC15/02/R436): R; antibiotic susceptibility S/I/R (host strain YMC15/02/T28): R; susceptibility category (S/I/R) (host strain YMC15/02/T28): R; antibiotic susceptibility S/I/R (host strain YMC15/03/R1604): R; susceptibility category (S/I/R) (host strain YMC15/03/R1604): R; antibiotic susceptibility S/I/R (host strain YMC15/09/R1869): R; susceptibility category (S/I/R) (host strain YMC15/09/R1869): R; antibiotic susceptibility S/I/R (host strain YMC16/01/P11): R; susceptibility category (S/I/R) (host strain YMC16/01/P11): R; antibiotic susceptibility S/I/R (host strain YMC16/01/R123): R; susceptibility category (S/I/R) (host strain YMC16/01/R123): R; antibiotic susceptibility S/I/R (host strain YMC16/01/R198): R; susceptibility category (S/I/R) (host strain YMC16/01/R198): R; antibiotic susceptibility S/I/R (host strain YMC16/01/R353): R; susceptibility category (S/I/R) (host strain YMC16/01/R353): R; antibiotic susceptibility S/I/R (host strain YMC16/01/R380): R; susceptibility category (S/I/R) (host strain YMC16/01/R380): R; antibiotic susceptibility S/I/R (host strain YMC16/01/R397): R; susceptibility category (S/I/R) (host strain YMC16/01/R397): R; antibiotic susceptibility S/I/R (host strain YMC16/01/R405): R; susceptibility category (S/I/R) (host strain YMC16/01/R405): R; antibiotic susceptibility S/I/R (host strain YMC16/03/R4461): R; susceptibility category (S/I/R) (host strain YMC16/03/R4461): R; antibiotic susceptibility S/I/R (host strain YMC16/05/R2210): R; susceptibility category (S/I/R) (host strain YMC16/05/R2210): R; antibiotic susceptibility S/I/R (host strain YMC16/07/R2512): R; susceptibility category (S/I/R) (host strain YMC16/07/R2512): R; antibiotic susceptibility S/I/R (host strain YMC16/09/R2471): R; susceptibility category (S/I/R) (host strain YMC16/09/R2471): R; antibiotic susceptibility S/I/R (host strain YMC16/10/R2537): R; susceptibility category (S/I/R) (host strain YMC16/10/R2537): R; antibiotic susceptibility S/I/R (host strain YMC16/12/B11422): R; susceptibility category (S/I/R) (host strain YMC16/12/B11422): R; antibiotic susceptibility S/I/R (host strain YMC16/12/B11449): R; susceptibility category (S/I/R) (host strain YMC16/12/B11449): R; antibiotic susceptibility S/I/R (host strain YMC16/12/B13325): R; susceptibility category (S/I/R) (host strain YMC16/12/B13325): R; antibiotic susceptibility S/I/R (host strain YMC16/12/P503): R; susceptibility category (S/I/R) (host strain YMC16/12/P503): R; antibiotic susceptibility S/I/R (host strain YMC16/12/R4637): R; susceptibility category (S/I/R) (host strain YMC16/12/R4637): R; antibiotic susceptibility S/I/R (host strain YMC17/01/B8053): R; susceptibility category (S/I/R) (host strain YMC17/01/B8053): R; antibiotic susceptibility S/I/R (host strain YMC17/01/B10087): R; susceptibility category (S/I/R) (host strain YMC17/01/B10087): R; antibiotic susceptibility S/I/R (host strain YMC17/01/B12075): R; susceptibility category (S/I/R) (host strain YMC17/01/B12075): R; antibiotic susceptibility S/I/R (host strain YMC17/01/B13454): R; susceptibility category (S/I/R) (host strain YMC17/01/B13454): R; antibiotic susceptibility S/I/R (host strain YMC17/01/P518): R; susceptibility category (S/I/R) (host strain YMC17/01/P518): R; antibiotic susceptibility S/I/R (host strain YMC17/01/R2812): R; susceptibility category (S/I/R) (host strain YMC17/01/R2812): R; antibiotic susceptibility S/I/R (host strain YMC17/02/B14): R; susceptibility category (S/I/R) (host strain YMC17/02/B14): R; antibiotic susceptibility S/I/R (host strain YMC17/02/B87): R; susceptibility category (S/I/R) (host strain YMC17/02/B87): R; antibiotic susceptibility S/I/R (host strain YMC17/02/B721): R; susceptibility category (S/I/R) (host strain YMC17/02/B721): R; antibiotic susceptibility S/I/R (host strain YMC17/02/B4039): R; susceptibility category (S/I/R) (host strain YMC17/02/B4039): R; antibiotic susceptibility S/I/R (host strain YMC17/02/B4520): R; susceptibility category (S/I/R) (host strain YMC17/02/B4520): R; antibiotic susceptibility S/I/R (host strain YMC17/02/B4864): S; susceptibility category (S/I/R) (host strain YMC17/02/B4864): S; antibiotic susceptibility S/I/R (host strain YMC17/02/B8414): R; susceptibility category (S/I/R) (host strain YMC17/02/B8414): R; antibiotic susceptibility S/I/R (host strain YMC17/02/P523): R; susceptibility category (S/I/R) (host strain YMC17/02/P523): R; antibiotic susceptibility S/I/R (host strain YMC17/02/R541): R; susceptibility category (S/I/R) (host strain YMC17/02/R541): R; antibiotic susceptibility S/I/R (host strain YMC17/02/R2392): R; susceptibility category (S/I/R) (host strain YMC17/02/R2392): R; antibiotic susceptibility S/I/R (host strain YMC17/03/B4730): R; susceptibility category (S/I/R) (host strain YMC17/03/B4730): R; antibiotic susceptibility S/I/R (host strain YMC17/03/B5000): R; susceptibility category (S/I/R) (host strain YMC17/03/B5000): R; antibiotic susceptibility S/I/R (host strain YMC17/03/P971): R; susceptibility category (S/I/R) (host strain YMC17/03/P971): R; antibiotic susceptibility S/I/R (host strain YMC17/03/R348): R; susceptibility category (S/I/R) (host strain YMC17/03/R348): R; antibiotic susceptibility S/I/R (host strain YMC17/03/R585): R; susceptibility category (S/I/R) (host strain YMC17/03/R585): R; antibiotic susceptibility S/I/R (host strain YMC17/03/R1888): R; susceptibility category (S/I/R) (host strain YMC17/03/R1888): R; antibiotic susceptibility S/I/R (host strain YMC17/03/R3279): R; susceptibility category (S/I/R) (host strain YMC17/03/R3279): R; antibiotic susceptibility S/I/R (host strain YMC17/03/R4077): R; susceptibility category (S/I/R) (host strain YMC17/03/R4077): R; antibiotic susceptibility S/I/R (host strain YMC17/03/R4607): R; susceptibility category (S/I/R) (host strain YMC17/03/R4607): R; antibiotic susceptibility S/I/R (host strain YMC17/04/R488): R; susceptibility category (S/I/R) (host strain YMC17/04/R488): R; antibiotic susceptibility S/I/R (host strain YMC17/04/R640): R; susceptibility category (S/I/R) (host strain YMC17/04/R640): R; antibiotic susceptibility S/I/R (host strain YMC/17/05/R1095): R; susceptibility category (S/I/R) (host strain YMC/17/05/R1095): R
